Source: the NIST ThermoML archive (doi:10.1016/j.fluid.2008.03.012)
Numbers after ± are expanded uncertainties.

Test: excess molar enthalpy (molar enthalpy of mixing); xn = mol fraction of the nth substance listed
Conditions: Liquid, Flow calorimetry

CCOC(=O)CC(C)=O [ethyl 3-oxobutanoate] + CC(C)O
excess molar enthalpy (298.15 K, 100 kPa, x1 = 0.0997): 0.236 ± 0.00526 kcal/mol
excess molar enthalpy (298.15 K, 100 kPa, x1 = 0.1998): 0.369 ± 0.00813 kcal/mol
excess molar enthalpy (298.15 K, 100 kPa, x1 = 0.2999): 0.446 ± 0.00956 kcal/mol
excess molar enthalpy (298.15 K, 100 kPa, x1 = 0.3499): 0.472 ± 0.01 kcal/mol
excess molar enthalpy (298.15 K, 100 kPa, x1 = 0.4003): 0.488 ± 0.0105 kcal/mol
excess molar enthalpy (298.15 K, 100 kPa, x1 = 0.4496): 0.496 ± 0.0105 kcal/mol
excess molar enthalpy (298.15 K, 100 kPa, x1 = 0.5003): 0.498 ± 0.0108 kcal/mol
excess molar enthalpy (298.15 K, 100 kPa, x1 = 0.5494): 0.491 ± 0.0105 kcal/mol
excess molar enthalpy (298.15 K, 100 kPa, x1 = 0.5995): 0.476 ± 0.0103 kcal/mol
excess molar enthalpy (298.15 K, 100 kPa, x1 = 0.6505): 0.452 ± 0.0098 kcal/mol
excess molar enthalpy (298.15 K, 100 kPa, x1 = 0.7008): 0.42 ± 0.00908 kcal/mol
excess molar enthalpy (298.15 K, 100 kPa, x1 = 0.7999): 0.328 ± 0.00717 kcal/mol
excess molar enthalpy (298.15 K, 100 kPa, x1 = 0.9006): 0.185 ± 0.0043 kcal/mol
excess molar enthalpy (298.15 K, 10000 kPa, x1 = 0.0994): 0.231 ± 0.00502 kcal/mol
excess molar enthalpy (298.15 K, 10000 kPa, x1 = 0.1993): 0.358 ± 0.00789 kcal/mol
excess molar enthalpy (298.15 K, 10000 kPa, x1 = 0.2992): 0.435 ± 0.00932 kcal/mol
excess molar enthalpy (298.15 K, 10000 kPa, x1 = 0.3491): 0.459 ± 0.0098 kcal/mol
excess molar enthalpy (298.15 K, 10000 kPa, x1 = 0.3995): 0.477 ± 0.0103 kcal/mol
excess molar enthalpy (298.15 K, 10000 kPa, x1 = 0.4488): 0.485 ± 0.0103 kcal/mol
excess molar enthalpy (298.15 K, 10000 kPa, x1 = 0.4995): 0.487 ± 0.0105 kcal/mol
excess molar enthalpy (298.15 K, 10000 kPa, x1 = 0.5486): 0.482 ± 0.0103 kcal/mol
excess molar enthalpy (298.15 K, 10000 kPa, x1 = 0.5987): 0.468 ± 0.01 kcal/mol
excess molar enthalpy (298.15 K, 10000 kPa, x1 = 0.6497): 0.447 ± 0.00956 kcal/mol
excess molar enthalpy (298.15 K, 10000 kPa, x1 = 0.7001): 0.417 ± 0.00884 kcal/mol
excess molar enthalpy (298.15 K, 10000 kPa, x1 = 0.7994): 0.326 ± 0.00717 kcal/mol
excess molar enthalpy (298.15 K, 10000 kPa, x1 = 0.9003): 0.184 ± 0.0043 kcal/mol
excess molar enthalpy (313.15 K, 100 kPa, x1 = 0.0997): 0.266 ± 0.00598 kcal/mol
excess molar enthalpy (313.15 K, 100 kPa, x1 = 0.1998): 0.422 ± 0.00908 kcal/mol
excess molar enthalpy (313.15 K, 100 kPa, x1 = 0.2999): 0.518 ± 0.011 kcal/mol
excess molar enthalpy (313.15 K, 100 kPa, x1 = 0.3499): 0.547 ± 0.0117 kcal/mol
excess molar enthalpy (313.15 K, 100 kPa, x1 = 0.4003): 0.565 ± 0.0122 kcal/mol
excess molar enthalpy (313.15 K, 100 kPa, x1 = 0.4496): 0.574 ± 0.0122 kcal/mol
excess molar enthalpy (313.15 K, 100 kPa, x1 = 0.5003): 0.573 ± 0.0122 kcal/mol
excess molar enthalpy (313.15 K, 100 kPa, x1 = 0.5494): 0.562 ± 0.012 kcal/mol
excess molar enthalpy (313.15 K, 100 kPa, x1 = 0.5995): 0.543 ± 0.0117 kcal/mol
excess molar enthalpy (313.15 K, 100 kPa, x1 = 0.6505): 0.513 ± 0.011 kcal/mol
excess molar enthalpy (313.15 K, 100 kPa, x1 = 0.7008): 0.473 ± 0.0103 kcal/mol
excess molar enthalpy (313.15 K, 100 kPa, x1 = 0.7999): 0.359 ± 0.00789 kcal/mol
excess molar enthalpy (313.15 K, 100 kPa, x1 = 0.9006): 0.198 ± 0.00454 kcal/mol
excess molar enthalpy (313.15 K, 10000 kPa, x1 = 0.0994): 0.26 ± 0.00574 kcal/mol
excess molar enthalpy (313.15 K, 10000 kPa, x1 = 0.1993): 0.409 ± 0.00884 kcal/mol
excess molar enthalpy (313.15 K, 10000 kPa, x1 = 0.2992): 0.498 ± 0.0108 kcal/mol
excess molar enthalpy (313.15 K, 10000 kPa, x1 = 0.3491): 0.527 ± 0.0112 kcal/mol
excess molar enthalpy (313.15 K, 10000 kPa, x1 = 0.3995): 0.544 ± 0.0117 kcal/mol
excess molar enthalpy (313.15 K, 10000 kPa, x1 = 0.4488): 0.553 ± 0.0117 kcal/mol
excess molar enthalpy (313.15 K, 10000 kPa, x1 = 0.4995): 0.551 ± 0.0117 kcal/mol
excess molar enthalpy (313.15 K, 10000 kPa, x1 = 0.5486): 0.541 ± 0.0115 kcal/mol
excess molar enthalpy (313.15 K, 10000 kPa, x1 = 0.5987): 0.522 ± 0.0112 kcal/mol
excess molar enthalpy (313.15 K, 10000 kPa, x1 = 0.6497): 0.491 ± 0.0105 kcal/mol
excess molar enthalpy (313.15 K, 10000 kPa, x1 = 0.7001): 0.452 ± 0.0098 kcal/mol
excess molar enthalpy (313.15 K, 10000 kPa, x1 = 0.7994): 0.342 ± 0.00741 kcal/mol
excess molar enthalpy (313.15 K, 10000 kPa, x1 = 0.9003): 0.187 ± 0.0043 kcal/mol
excess molar enthalpy (328.15 K, 100 kPa, x1 = 0.0997): 0.283 ± 0.00621 kcal/mol
excess molar enthalpy (328.15 K, 100 kPa, x1 = 0.1998): 0.454 ± 0.0098 kcal/mol
excess molar enthalpy (328.15 K, 100 kPa, x1 = 0.2999): 0.556 ± 0.012 kcal/mol
excess molar enthalpy (328.15 K, 100 kPa, x1 = 0.3499): 0.586 ± 0.0124 kcal/mol
excess molar enthalpy (328.15 K, 100 kPa, x1 = 0.4003): 0.605 ± 0.0129 kcal/mol
excess molar enthalpy (328.15 K, 100 kPa, x1 = 0.4496): 0.612 ± 0.0131 kcal/mol
excess molar enthalpy (328.15 K, 100 kPa, x1 = 0.5003): 0.61 ± 0.0129 kcal/mol
excess molar enthalpy (328.15 K, 100 kPa, x1 = 0.5494): 0.597 ± 0.0127 kcal/mol
excess molar enthalpy (328.15 K, 100 kPa, x1 = 0.5995): 0.573 ± 0.0122 kcal/mol
excess molar enthalpy (328.15 K, 100 kPa, x1 = 0.6505): 0.538 ± 0.0115 kcal/mol
excess molar enthalpy (328.15 K, 100 kPa, x1 = 0.7008): 0.494 ± 0.0105 kcal/mol
excess molar enthalpy (328.15 K, 100 kPa, x1 = 0.7999): 0.373 ± 0.00813 kcal/mol
excess molar enthalpy (328.15 K, 100 kPa, x1 = 0.9006): 0.203 ± 0.00478 kcal/mol
excess molar enthalpy (328.15 K, 10000 kPa, x1 = 0.0994): 0.276 ± 0.00621 kcal/mol
excess molar enthalpy (328.15 K, 10000 kPa, x1 = 0.1993): 0.447 ± 0.00956 kcal/mol
excess molar enthalpy (328.15 K, 10000 kPa, x1 = 0.2992): 0.548 ± 0.0117 kcal/mol
excess molar enthalpy (328.15 K, 10000 kPa, x1 = 0.3491): 0.578 ± 0.0124 kcal/mol
excess molar enthalpy (328.15 K, 10000 kPa, x1 = 0.3995): 0.597 ± 0.0127 kcal/mol
excess molar enthalpy (328.15 K, 10000 kPa, x1 = 0.4488): 0.604 ± 0.0129 kcal/mol
excess molar enthalpy (328.15 K, 10000 kPa, x1 = 0.4995): 0.602 ± 0.0129 kcal/mol
excess molar enthalpy (328.15 K, 10000 kPa, x1 = 0.5486): 0.59 ± 0.0127 kcal/mol
excess molar enthalpy (328.15 K, 10000 kPa, x1 = 0.5987): 0.566 ± 0.0122 kcal/mol
excess molar enthalpy (328.15 K, 10000 kPa, x1 = 0.6497): 0.532 ± 0.0115 kcal/mol
excess molar enthalpy (328.15 K, 10000 kPa, x1 = 0.7001): 0.487 ± 0.0105 kcal/mol
excess molar enthalpy (328.15 K, 10000 kPa, x1 = 0.7994): 0.367 ± 0.00789 kcal/mol
excess molar enthalpy (328.15 K, 10000 kPa, x1 = 0.9003): 0.199 ± 0.00454 kcal/mol
